# Experimental data reported in US10253028B2, “Pyrazolo[3,4-D]pyrimidin derivative and its use for the treatment of leishmaniasis” (GlaxoSmithKline Intellectual Property Development Limited, priority 2015, dated 2019).
# Key:
# THP-1 cells = assay: Intramacrophage Leishmania donovani assay, cytotoxicity readout (THP-1 cell count); type: cell-based; settings: 72 h incubation with compound; for EC50: Homo sapiens, THP-1, 72 h, read-out: pEC50 value against THP-1 cells (converted)
# Procedure: (§1) Intra macrophage Leishmania donovani assay
# (§2) The intramacrophage Leishmania assay was performed exactly as described in de Rycker et al (Antimicrob Agents Chemother. 2013 July; 57(7):2913-22. doi: 10.1128/AAC.02398-12. Epub 2013 Apr. 9. Comparison of a high-throughput high-content intracellular Leishmania donovani assay with an axenic amastigote assay. De Rycker M, Hallyburton I, Thomas J, Campbell L, Wyllie S, Joshi D, Cameron S, Gilbert I H, Wyatt P G, Frearson J A, Fairlamb A H, Gray D W.). Briefly, 1 μl of compound was pre-dispensed into 384 well sterile intermediary plates. For single point screening, amphotericin B was added to all wells of column 24 as a positive control (final concentration 2 μM) and DMSO to column 23. For potency determinations, ten-point, one in three dilution curves were created with the highest concentration being 50 μM and on each plate a control curve of amphotericin B was included. Controls were as follows: columns 11 and 12: DMSO, columns 23 and 24: amphotericin B (final concentration 2 μM). To the intermediary plates, 100 μl of THP-1 media was added and plates were shaken for >5 min to ensure complete mixing. THP-1 cells (8,000 per well, 50 μl) were plated into black clear-bottom 384 well plates (Corning) in presence of 10 nM PMA. After 20 min at RT, the plates were incubated at 37° C. under 5% CO2 in a humidified incubator for 75 h. The cells were then washed with 450 μl sterile phosphate buffered saline (PBS) supplemented with 1 mM CaCl2, 0.5 mM MgCl2, 0.1% (w/v) bovine serum albumin (PBS-A) and amastigotes were added to all wells at a multiplicity of infection of 5 (40,000 amastigotes per well). After 40 min at RT, plates were returned to the incubator. Amastigotes were incubated in the presence of macrophages for 16 h. […] For each well, i) THP-1 cell count (cytotoxicity readout) and ii) average number of amastigotes per cell (potency readout) were calculated, both in terms of pEC50 values.
# [1] = tested on: Leishmania donovani amastigotes; assay: Intramacrophage Leishmania donovani assay, potency readout (average number of amastigotes per cell); type: cell-based; settings: THP-1, 72 h, amastigotes in PMA-differentiated THP-1 macrophages, 72 h incubation with compound, read-out: pEC50 value against amastigotes (converted)
# Procedure: as §1
# as §2, with “mixing.” for “mixing. THP-1 cells (8,000 per well, 50 μl) were plated into black clear-bottom 384 well plates (Corning) in presence of 10 nM PMA. After 20 min at RT, the plates were incubated at 37° C. under 5% CO2 in a humidified incubator for 75 h. The cells were then washed with 450 μl sterile phosphate buffered saline (PBS) supplemented with 1 mM CaCl2, 0.5 mM MgCl2, 0.1% (w/v) bovine serum albumin (PBS-A) and amastigotes were added to all wells at a multiplicity of infection of 5 (40,000 amastigotes per well). After 40 min at RT, plates were returned to the incubator. Amastigotes were incubated in the presence of macrophages for 16 h.”
EC50 [1] [µM],Compound,pEC50 value against THP-1 cells (THP-1 cells),EC50 (THP-1 cells) [µM]
,"C[C@H]1CN(c2n[nH]c3nc(NC4CCC(NS(=O)(=O)CCC(F)(F)F)CC4)ncc23)CCO1 (single isomer, unassigned) [Formula (I)]",4.3,≥ 39.8
≤ 5.01,"C[C@@H]1CN(c2n[nH]c3nc(NC4CCC(NS(=O)(=O)CCC(F)(F)F)CC4)ncc23)CCO1 (single isomer, unassigned) [opposite enantiomer]",,≥ 39.8
